Data from US20210145722A1, “ACTIVE SUBSTANCE COMBINATIONS OF N-(4-AMINO-2-METHYLQUINOLIN-6-YL)-2-((4-ETHYLPHENOXY)METHYL)BENZAMIDE AND ONE OR MORE COSMETICALLY OR DERMATOLOGICALLY ACCEPTABLE FRAGRANCES” (BEIERSDORF AG, priority 2017, published 2021).
Read-outs that look alike come from different tables or passages of the source.

Tests used:
subcutaneous adipocytes = assay: Lipid assay (AdipoRed staining of differentiated adipocytes); type: cell-based; details: combination with 10 ng/ml N-(4-amino-2-methylquinolin-6-yl)-2-((4-ethylphenoxy)methyl)benzamide; one week treatment
Experimental: The lipid assay is performed on subcutaneous adipocytes. Cell culture dishes are inoculated with preadipocytes, which undergo differentiation into adipocytes. This is followed by treatment with the active substance for one week, during which the cells synthesize lipids and store them in vesicles. The total amount of lipid as a function of active substance effects is determined at the end of the culture period. This is done by staining the cell monolayer with the lipophilic fluorescent dye AdipoRed, followed by quantification by fluorescence spectroscopy.

[1] = LDH (lactate dehydrogenase) cytotoxicity assay, fibroblasts
Experimental: The third assay performed is the LDH (lactate dehydrogenase) cytotoxicity assay. In this assay, the metabolic enzyme LDH is detected in the medium supernatant of the cell monolayer by adding a substrate for the enzyme to the cell culture supernatant. Reaction of the latter produces a color change, which is determined photometrically. The magnitude of the color change correlates here with the amount of LDH in the cell culture supernatant.
For all assays, the active substances were present as 1000× stocks dissolved to 10 mM in DMSO and were diluted 1:1000 in the appropriate cell culture medium for use.

dermal fibroblasts = assay: BrdU viability assay (cell division rate); type: cell-based; details: combination with 10 ng/ml N-(4-amino-2-methylquinolin-6-yl)-2-((4-ethylphenoxy)methyl)benzamide; 24 h treatment
Experimental: For the viability assay, dermal fibroblasts were treated with active substances/active substance combinations in the cell culture medium for 24 h and during this time were provided with BrdU (5-bromodeoxyuridine). The cells take up this synthetic nucleic acid, which is detectable by fluorescence detection, and incorporate it into newly synthesized genetic material during cell division. The fluorescence of the cell monolayer is then measured after 24 h, the intensity of which is ultimately a measure of the cell division rate during treatment with the active substance. This allows conclusions to be drawn about the effect of the individual active substances on cell viability.

[2] = combination with 10 ng/ml N-(4-amino-2-methylquinolin-6-yl)-2-((4-ethylphenoxy)methyl)benzamide, table does not say whether fibroblasts or adipocytes

| SMILES | Assay in which the combination showed better activity than the corresponding active substance alone: Lipid (subcutaneous adipocytes) | Assay in which the combination showed better activity than the corresponding active substance alone: LDH [1, 2] | further results |
| --- | --- | --- | --- |
| C=CC(C)(O)CCC=C(C)CC (mixture of isomers) [Ethyl linalool] | Lipid |  |  |
| OCc1ccccc1 [Benzyl alcohol DD, Benzyl alcohol] | Lipid |  |  |
| O=C(C=Cc1ccccc1)OCc1ccccc1 [Benzyl cinnamate] | Lipid |  |  |
| O=C(OCc1ccccc1)c1ccccc1O [Benzyl salicylate] |  |  | Assay in which the combination showed better activity than the corresponding active substance alone: LDH [1]: LDH |
| CC(C)=CCCC(C)=CC=O [Citral 95, Citral] |  |  | Assay in which the combination showed better activity than the corresponding active substance alone: BrdU (dermal fibroblasts): BrdU |
| CC(C)=CCCC(C)CCO (centres unmarked) [Citronellol 950, Citronellol] | Lipid | LDH |  |
| C=CC(C)CCCC(C)(C)O (centres unmarked) [Dihydromyrcenol] | Lipid |  |  |
| CCOc1cc(C=O)ccc1O [Ethyl vanillin] | Lipid |  |  |
| C=CCc1ccc(O)c(OC)c1 [Eugenol] |  |  | Assay in which the combination showed better activity than the corresponding active substance alone: BrdU (dermal fibroblasts): BrdU |
| CC(C)=CCCC(C)=CCCC(C)=CCO [Farnesol] |  | LDH |  |
| CCCCCC1C(=O)CCC1CC(=O)OC (centres unmarked) [Hedion] | Lipid | LDH | Assay in which the combination showed better activity than the corresponding active substance alone: BrdU (dermal fibroblasts): BrdU |
| CC/C=C\CCO [Hexenol cis-3] | Lipid | LDH | Assay in which the combination showed better activity than the corresponding active substance alone: BrdU (dermal fibroblasts): BrdU |
| CCCCCCOC(=O)c1ccccc1O [Hexyl salicylate] | Lipid | LDH |  |
| CC(CC=O)CCCC(C)(C)O (centres unmarked) [Hydroxycitronellal] |  | LDH |  |
| CC(=O)C1(C)CC2=C(CCCC2(C)C)CC1C (centres unmarked) [Iso E Super] | Lipid | LDH |  |
| CC(C=O)Cc1ccc(C(C)(C)C)cc1 (centres unmarked) [Lilial] |  | LDH |  |
| C=C(C)[C@H]1CC=C(C)CC1 [Limonene D pure, Limonene D] | Lipid |  |  |
| C=CC(C)(O)CCC=C(C)C (centres unmarked) [Linalool aroma, Linalool] | Lipid | LDH |  |
| C=CC(C)(CCC=C(C)C)OC(C)=O (centres unmarked) [Linalyl acetate] |  | LDH |  |
| O=C1CCCCCCCCCCCCCCO1 [Macrolide supra] | Lipid |  |  |
| CCCCCC#CC(=O)OC [Methyl heptine carbonate] | Lipid | LDH |  |
| OCCc1ccccc1 [Phenylethyl alcohol] |  |  | Assay in which the combination showed better activity than the corresponding active substance alone: BrdU (dermal fibroblasts): BrdU |
| Cc1ccc(C(C)C)c(O)c1 [Thymol cryst., Thymol] |  | LDH |  |
